Where two headings read alike, the source gives them in different places.
How the values were obtained:
Assay in all cases: microbe, parasite or virus in culture
Type in all cases: cell-based, Hepatitis C virus (HCV)
[1] = system: HCV replicon 2B; conditions: Replicon Assay A
Summary of the method: (§1)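 Read-out is replicon RNA per cell by real-time RT-PCR, normalised to cyclophilin mRNA amplified in the same well. Cells were exposed to compound for 3 days at 2000 cells/well in medium with 5% fetal bovine serum and 0.5% DMSO.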

[2] = system: HCV replicon 1AY93H; conditions: Replicon Assay A
Summary of the method: as §1

[3] = system: HCV replicon 1A; conditions: Replicon Assay A
Summary of the method: as §1

[4] = system: HCV replicon 1B; conditions: Replicon Assay B
[5] = system: HCV replicon 1AQ30D; conditions: Replicon Assay B
[6] = Hepatitis C virus, read-out: 2B IC50 (nM), replicon 2B
[7] = Hepatitis C virus, read-out: 1A Y93H IC50 (nM), replicon 1AY93H
[8] = Hepatitis C virus, read-out: 1A Q30D IC50 (nM), replicon 1AQ30D
[9] = read-out: 1A Y93H IC50, replicon 1AY93H
[10] = read-out: 1A Q30D IC50, replicon 1AQ30D

| SMILES | IC50 ([3]; replicon 1A) [pM] | IC50 [1, 6] [nM] | IC50 [2, 7] [nM] | IC50 ([3]; Hepatitis C virus, replicon 1A) [pM] | IC50 ([4]; Hepatitis C virus, replicon 1B) [pM] | IC50 [5, 8] [nM] | IC50 ([1]; read-out: 2B IC50, replicon 2B) [nM] | IC50 [2, 9] [nM] | also measured |
| --- | --- | --- | --- | --- | --- | --- | --- | --- | --- |
| COC(=O)N[C@H](C(=O)N1CCC[C@H]1c1ncc(-c2cc(F)c3c(c2)OC(c2ccc(C4CC4)s2)n2c-3cc3cc(-c4cnc([C@@H]5CCCN5C(=O)[C@@H](NC(=O)OC)C(C)C)[nH]4)ccc32)[nH]1)C(C)C (single isomer, unassigned) [Compound 6] | 1.9 |  |  |  |  |  |  |  | IC50 ([1]; replicon 2B, read-out: 2B IC50): 0.028 nM; IC50 ([2]; replicon 1AY93H, read-out: 1A Y93H IC50): 0.011 nM; IC50 ([4]; replicon 1B): 1.5 pM; IC50 ([5]; replicon 1AQ30D, read-out: 1A Q30D IC50): 0.32 nM |
| COC(=O)N[C@H](C(=O)N1CCC[C@H]1c1ncc(-c2cc(C)c3c(c2)OC(c2ccc(C4CC4)s2)n2c-3cc3cc(-c4cnc([C@@H]5C[C@H]6C[C@H]6N5C(=O)[C@@H](NC(=O)OC)C(C)C)[nH]4)ccc32)[nH]1)C(C)C (single isomer, unassigned) [Compound 755] |  |  |  |  |  |  |  |  | IC50 ([1]; read-out: 2B IC50, HCV replicon 2B): 0.023 nM; IC50 ([2]; read-out: 1A Y93H IC50, HCV replicon 1A Y93H): 0.022 nM; IC50 ([3]; HCV replicon 1A): 2.8 pM; IC50 ([4]; HCV replicon 1B): 1.9 pM; IC50 ([5]; read-out: 1A Q30D IC50, HCV replicon 1A Q30D): 0.341 nM |
| COC(=O)N[C@H](C(=O)N1CCC[C@H]1c1ncc(-c2cc(F)c3c(c2)OC(c2ccc(C4CC4)s2)n2c-3cc3cc(-c4cnc([C@@H]5CCCN5C(=O)[C@@H](NC(=O)OC)C5CCOCC5)[nH]4)ccc32)[nH]1)C(C)C (some centres unmarked) [Compound 127] |  | 0.003 | 0.002 | 2 | 2.8 | 0.02 |  |  |  |
| COC(=O)N[C@H](C(=O)N1CCC[C@H]1c1ncc(-c2cc(F)c3c(c2)OC(c2ccc(C4CC4)s2)n2c-3cc3cc(-c4cnc([C@@H]5C[C@@H](F)CN5C(=O)[C@@H](NC(=O)OC)C(C)C)[nH]4)ccc32)[nH]1)C(C)C (some centres unmarked) [Compound 757] |  |  |  |  |  |  |  |  | IC50 ([1]; Hepatitis C virus, read-out: 2B IC50, HCV replicon 2B): 2.4 nM; IC50 ([2]; Hepatitis C virus, read-out: 1A Y93H IC50, HCV replicon 1A Y93H): 0.013 nM; IC50 ([3]; Hepatitis C virus, HCV replicon 1A): 2.7 pM; IC50 ([4]; Hepatitis C virus, HCV replicon 1B): 3 pM; IC50 ([5]; Hepatitis C virus, read-out: 1A Q30D IC50, HCV replicon 1A Q30D): 2.85 nM |
| COC(=O)N[C@H](C(=O)N1CCC[C@H]1c1ncc(-c2cc(F)c3c(c2)OC(c2cc4nccnc4s2)n2c-3cc3cc(-c4cnc([C@@H]5CCCN5C(=O)[C@@H](NC(=O)OC)C(C)C)[nH]4)ccc32)[nH]1)C(C)C (single isomer, unassigned) [Compound 48] | 1.9 |  |  |  | 1.7 | 0.54 | 0.016 | 0.027 |  |
| COC(=O)NC(C(=O)N1CCC[C@H]1c1ncc(-c2ccc3c(c2)cc2n3C(c3ccc(C4CC4)s3)Oc3cc(-c4cnc([C@@H]5CCCN5C(=O)[C@@H](NC(=O)OC)C(C)C)[nH]4)cc(F)c3-2)[nH]1)C1(F)CCOCC1 (single isomer, unassigned) [Compound 364] |  | 0.0872 | 0.0869 | 2 | 2.3 | 0.498 |  |  |  |
| COC(=O)NC(C(=O)N1CCC[C@H]1c1ncc(-c2ccc3c(c2)cc2n3C(c3ccc(C4CC4)s3)Oc3cc(-c4cnc([C@@H]5CCCN5C(=O)[C@@H](NC(=O)OC)C5CCOCC5)[nH]4)cc(F)c3-2)[nH]1)C(C)(C)F (single isomer, unassigned) [Compound 172] | 1.5 |  |  |  | 1.8 |  | 0.005 | 0.004 | IC50 [5, 10]: 0.018 nM |
| COC(=O)NC(C(=O)N1CCC[C@H]1c1ncc(-c2ccc3c(c2)cc2n3C(c3ccc(C4CC4)s3)Oc3cc(-c4cnc([C@@H]5CCCN5C(=O)[C@@H](NC(=O)OC)C(C)C)[nH]4)cc(F)c3-2)[nH]1)C1CCOC(C)(C)C1 (some centres unmarked) [Compound 218] |  | 0.004 | 0.004 | 2.6 | 3.1 | 0.055 |  |  |  |
| COC(=O)NC(C(=O)N1CCC[C@H]1c1ncc(-c2ccc3c(c2)cc2n3C(c3cc(C)c(C)s3)Oc3cc(-c4cnc([C@@H]5CCCN5C(=O)[C@@H](NC(=O)OC)C(C)C)[nH]4)cc(F)c3-2)[nH]1)C(C)(C)F (single isomer, unassigned) [Compound 39] | 2 | 0.45 |  |  | 1 | 0.61 |  | 0.12 |  |
| COC(=O)NC(C(=O)N1CCC[C@H]1c1ncc(-c2ccc3c(c2)cc2n3C(c3cc4ccccc4s3)Oc3cc(-c4cnc([C@@H]5CCCN5C(=O)[C@@H](NC(=O)OC)C5CCOCC5)[nH]4)cc(F)c3-2)[nH]1)C(C)(C)F (single isomer, unassigned) [Compound 183] | 1.2 |  |  |  |  |  | 0.68 | 0.74 | IC50 ([4]; replicon 1B): 2.4 pM; IC50 [5, 10]: 1.08 nM |

From patent US20160257697A1, “THIOPHENE-SUBSTITUTED TETRACYCLIC COMPOUNDS AND METHODS OFUSE THEREOF FOR THE TREATMENT OF VIRAL DISEASES” (priority 2013, published 2016)
